# Experimental data as given in ChEMBL document CHEMBL1201862, “PubChem BioAssay data set” (2004).
# Active and inactive are the calls of the source.
# Key:
# [1] = inhibitors of intracellular T. cruzi replication, confirmation, NIH3T3 host cells, beta-gal luminescence (AID 2044); type: functional, cell-based;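 further: intracellular parasites grown in NIH/3T3 mouse fibroblasts as host cells; luminescent beta-galactosidase reporter signal from transgenic T. cruzi replicating inside host cells; inhibitors lower the luminescence signal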
# [2] = cytotoxicity toward NIH3T3 fibroblasts, dose response, counter-screen, cell-based, ATP luminescence, mouse fibroblasts (AID 2010); type: functional;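 further: cells exposed to compound for about 90 hours before reading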
# [3] = tested on: Candida albicans; experiment: growth inhibition of resistant C. albicans, dose response, CaCi-8 strain, fluconazole, dry powder, set 4 (AID 488950); type: functional, organism-based
# [4] = tested on: Candida albicans; experiment: fluconazole resistance reversal in C. albicans, dose response, CaCi-2 strain, Alamar Blue, dry powder, set 4 (AID 488943); type: functional, organism-based
# [5] = tested on: Candida albicans; experiment: growth inhibition of resistant C. albicans, dose response, CaCi-8, fluconazole, Alamar Blue, dry powder (AID 488807); type: functional, organism-based
# [6] = tested on: NIH3T3; experiment: cytotoxicity in NIH-3T3 fibroblasts, dose response, cytotoxicity control for antifungal drug resistance project, cell-based, Alamar Blue, fluconazole, dry powder (AID 488809); type: functional; settings: Mus musculus
# [7] = target: Phospholipase A2 (Homo sapiens, UniProt P04054); experiment: PLA2 enzyme inhibitors, dose response, counter-screen for ATG4B inhibitor project, biochemical, set 2 (AID 588586); type: functional
# [8] = target: Cysteine protease ATG4B (Homo sapiens, UniProt Q9Y4P1); experiment: ATG4B protease inhibitors, dose response, biochemical, fluorescence, set 2 (AID 588584); type: functional
# [9] = target: T1, Mannose-6-phosphate isomerase (Homo sapiens, UniProt P34949); experiment: inhibitors of human PMI, primary screen, biochemical, fluorescence intensity, coupled assay (AID 1209)
# T1 sequence (P34949 whole entry): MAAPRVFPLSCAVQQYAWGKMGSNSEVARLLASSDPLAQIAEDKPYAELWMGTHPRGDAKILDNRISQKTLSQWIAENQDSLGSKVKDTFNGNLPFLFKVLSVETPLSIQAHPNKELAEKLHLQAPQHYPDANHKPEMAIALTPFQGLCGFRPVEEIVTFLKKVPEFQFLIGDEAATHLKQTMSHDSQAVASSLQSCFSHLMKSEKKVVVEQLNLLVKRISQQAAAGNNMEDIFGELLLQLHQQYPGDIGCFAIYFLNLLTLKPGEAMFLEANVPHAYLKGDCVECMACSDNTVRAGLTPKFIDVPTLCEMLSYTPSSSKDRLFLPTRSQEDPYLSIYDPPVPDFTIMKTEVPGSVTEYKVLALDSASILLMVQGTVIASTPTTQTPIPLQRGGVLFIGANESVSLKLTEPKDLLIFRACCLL
# [10] = target: T1, Mannose-6-phosphate isomerase; experiment: PMI enzyme inhibitors, confirmation, biochemical, fluorescence intensity (AID 1535)
# [11] = target: DNA dC->dU-editing enzyme APOBEC-3A (Homo sapiens, UniProt P31941); experiment: APOBEC3A DNA deaminase inhibitors, dose response, biochemical (AID 504722); type: functional
# [12] = target: Phosphomannomutase 2 (Homo sapiens, UniProt O15305); experiment: Counter screen SAR assay for PMM2 inhibitors via a fluorescence intensity assay. [Related pubchem assays (depositor defined):AID1545, AID1574]
# [13] = target: DNA dC->dU-editing enzyme APOBEC-3G (Homo sapiens, UniProt Q9HC16); experiment: Dose Response confirmation of small molecule APOBEC3G DNA Deaminase Inhibitors via a fluorescence-based single-stranded DNA deaminase assay. [Related pubchem assays (depositor defined):AID493012, AID493028]; type: functional
# [14] = HEp-2 cell cytotoxicity, dose response, cytotoxicity control for RSV inhibitor project, HTS (AID 2410); type: functional; settings: human respiratory syncytial virus
# [15] = Luminescence Cell-Based Dose Retest to Confirm Inhibitors of Cancer Stem Cells. [Related pubchem assays (depositor defined):AID2717, AID2721]; type: functional; settings: Homo sapiens
# [16] = target: Trypsin (Sus scrofa, UniProt P00761); experiment: porcine trypsin inhibitors, dose response, selectivity assay for Rce1 protease inhibitor project, biochemical, quenched peptide fluorescence, cherry-pick (AID 488789)
# [17] = target: CAAX prenyl protease 2 (Homo sapiens, UniProt Q9Y256); experiment: human Rce1 protease inhibitors, dose response, biochemical, yeast membranes, quenched-peptide fluorescence, cherry-pick (AID 588849)
# [18] = cells
# [19] = target: DNA topoisomerase (Yersinia pestis, UniProt A0A2S9PM60); experiment: Y. pestis Topo-I inhibitors, cleavage product readout, dose response, biochemical, cherry-pick (AID 588525)
# [20] = tested on: HEK293; experiment: cytotoxicity in HEK293T NF-kB-Luc cells, SAR follow-up, cytotoxicity control for NF-kB activator project, cell-based, resazurin fluorescence (AID 493251); type: functional; settings: Homo sapiens
# [21] = tested on: Jurkat; experiment: SAR Analysis of small molecule inhibitors of T-cell specific antigen receptor-induced NF-kB activation in a Jurkat cell line using a luminescence assay - Set 2. [Related pubchem assays (depositor defined):AID435003, AID435012, AID465]; type: functional, cell-based; settings: Homo sapiens
# [22] = tested on: HEK293; experiment: SAR Analysis of small molecule inhibitors of T-cell specific antigen receptor-induced NF-kB activation in a HEK-293T cell line using a luminescence assay - Set 2. [Related pubchem assays (depositor defined):AID435003, AID435012, AID489026]; type: functional, cell-based; settings: Homo sapiens
# [23] = target: Beta-galactosidase (Escherichia coli, UniProt Q8VNN2); experiment: PubChem AID 485352; type: functional
# [24] = target: T2, Type-1 angiotensin II receptor (Homo sapiens, UniProt P30556); experiment: AT1 receptor antagonists, dose response, selectivity assay for APJ receptor antagonist project, cell-based, uHTS hits (AID 463214); type: functional;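 further: antagonist potency against angiotensin II stimulated AT1 response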
# T2 sequence (P30556 whole entry): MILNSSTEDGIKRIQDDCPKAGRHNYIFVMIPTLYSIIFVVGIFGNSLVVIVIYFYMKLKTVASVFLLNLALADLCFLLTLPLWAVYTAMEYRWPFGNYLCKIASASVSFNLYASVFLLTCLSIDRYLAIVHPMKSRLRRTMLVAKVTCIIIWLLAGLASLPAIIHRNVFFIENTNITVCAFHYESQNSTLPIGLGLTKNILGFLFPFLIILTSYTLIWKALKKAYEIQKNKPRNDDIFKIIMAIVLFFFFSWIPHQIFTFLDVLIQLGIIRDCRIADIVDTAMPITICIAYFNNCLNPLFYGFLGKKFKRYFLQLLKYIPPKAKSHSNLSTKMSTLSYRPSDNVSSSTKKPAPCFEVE
# [25] = target: T3, Polyadenylate-binding protein 1 (Homo sapiens, UniProt P11940); experiment: PABP1 MLLE–PAM2 interaction inhibitors, dose response, miRNA deadenylation inhibitor project, biochemical, fluorescence polarization, Cy5-PAM2 peptide, secondary (AID 602260); type: functional; settings: read-out: IC50_Mean
# [26] = target: T3, Polyadenylate-binding protein 1; experiment: PABP1 MLLE–PAM2 binding inhibitor potency, dose response, biochemical, fluorescence polarization, FITC-PAM2 peptide (AID 602259); type: functional; settings: read-out: IC50_Mean
# T3 sequence (P11940 whole entry): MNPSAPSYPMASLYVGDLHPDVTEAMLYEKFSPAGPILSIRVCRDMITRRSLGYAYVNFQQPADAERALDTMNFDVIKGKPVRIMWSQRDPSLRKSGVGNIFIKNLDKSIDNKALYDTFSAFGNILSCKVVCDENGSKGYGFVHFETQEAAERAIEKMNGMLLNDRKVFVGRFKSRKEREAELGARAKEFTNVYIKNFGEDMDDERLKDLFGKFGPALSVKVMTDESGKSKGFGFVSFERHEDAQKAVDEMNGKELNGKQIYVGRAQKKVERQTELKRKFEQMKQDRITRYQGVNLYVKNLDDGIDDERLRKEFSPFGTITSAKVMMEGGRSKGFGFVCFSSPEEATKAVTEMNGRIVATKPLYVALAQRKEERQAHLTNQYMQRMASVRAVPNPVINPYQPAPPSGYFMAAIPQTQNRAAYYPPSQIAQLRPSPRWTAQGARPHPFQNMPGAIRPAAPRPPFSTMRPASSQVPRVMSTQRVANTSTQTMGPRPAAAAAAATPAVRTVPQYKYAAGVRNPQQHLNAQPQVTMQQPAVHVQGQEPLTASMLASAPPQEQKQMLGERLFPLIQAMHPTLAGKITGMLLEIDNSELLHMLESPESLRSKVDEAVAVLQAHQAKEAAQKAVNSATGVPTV
# Sequence of Beta-galactosidase (Q8VNN2 whole entry): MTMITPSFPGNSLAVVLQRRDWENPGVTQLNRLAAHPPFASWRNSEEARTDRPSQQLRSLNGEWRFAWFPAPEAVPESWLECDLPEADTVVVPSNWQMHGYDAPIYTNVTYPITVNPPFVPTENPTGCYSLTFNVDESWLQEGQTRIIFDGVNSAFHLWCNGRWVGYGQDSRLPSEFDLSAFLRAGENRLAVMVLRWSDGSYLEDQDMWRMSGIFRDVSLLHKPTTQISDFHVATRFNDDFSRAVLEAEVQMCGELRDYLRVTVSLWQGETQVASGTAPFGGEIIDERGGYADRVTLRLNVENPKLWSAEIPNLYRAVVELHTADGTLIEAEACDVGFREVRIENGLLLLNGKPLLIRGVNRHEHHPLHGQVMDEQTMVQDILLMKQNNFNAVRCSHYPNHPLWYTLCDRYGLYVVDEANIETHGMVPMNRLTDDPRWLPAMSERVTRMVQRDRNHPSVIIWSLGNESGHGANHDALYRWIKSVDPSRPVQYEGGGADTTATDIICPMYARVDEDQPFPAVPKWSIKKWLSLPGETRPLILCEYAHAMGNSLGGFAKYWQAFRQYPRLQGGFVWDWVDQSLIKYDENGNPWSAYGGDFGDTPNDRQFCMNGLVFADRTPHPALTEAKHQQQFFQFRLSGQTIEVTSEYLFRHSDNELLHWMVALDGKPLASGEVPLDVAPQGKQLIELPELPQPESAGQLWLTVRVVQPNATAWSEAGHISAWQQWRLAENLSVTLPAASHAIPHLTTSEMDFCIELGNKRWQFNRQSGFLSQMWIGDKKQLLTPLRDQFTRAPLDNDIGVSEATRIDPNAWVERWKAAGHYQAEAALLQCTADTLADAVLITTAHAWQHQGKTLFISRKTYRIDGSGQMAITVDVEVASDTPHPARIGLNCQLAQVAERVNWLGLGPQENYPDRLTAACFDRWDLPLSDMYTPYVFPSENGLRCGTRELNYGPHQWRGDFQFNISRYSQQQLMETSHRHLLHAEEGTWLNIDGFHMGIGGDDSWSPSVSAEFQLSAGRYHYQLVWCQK
# Sequence of DNA topoisomerase (A0A2S9PM60 whole entry): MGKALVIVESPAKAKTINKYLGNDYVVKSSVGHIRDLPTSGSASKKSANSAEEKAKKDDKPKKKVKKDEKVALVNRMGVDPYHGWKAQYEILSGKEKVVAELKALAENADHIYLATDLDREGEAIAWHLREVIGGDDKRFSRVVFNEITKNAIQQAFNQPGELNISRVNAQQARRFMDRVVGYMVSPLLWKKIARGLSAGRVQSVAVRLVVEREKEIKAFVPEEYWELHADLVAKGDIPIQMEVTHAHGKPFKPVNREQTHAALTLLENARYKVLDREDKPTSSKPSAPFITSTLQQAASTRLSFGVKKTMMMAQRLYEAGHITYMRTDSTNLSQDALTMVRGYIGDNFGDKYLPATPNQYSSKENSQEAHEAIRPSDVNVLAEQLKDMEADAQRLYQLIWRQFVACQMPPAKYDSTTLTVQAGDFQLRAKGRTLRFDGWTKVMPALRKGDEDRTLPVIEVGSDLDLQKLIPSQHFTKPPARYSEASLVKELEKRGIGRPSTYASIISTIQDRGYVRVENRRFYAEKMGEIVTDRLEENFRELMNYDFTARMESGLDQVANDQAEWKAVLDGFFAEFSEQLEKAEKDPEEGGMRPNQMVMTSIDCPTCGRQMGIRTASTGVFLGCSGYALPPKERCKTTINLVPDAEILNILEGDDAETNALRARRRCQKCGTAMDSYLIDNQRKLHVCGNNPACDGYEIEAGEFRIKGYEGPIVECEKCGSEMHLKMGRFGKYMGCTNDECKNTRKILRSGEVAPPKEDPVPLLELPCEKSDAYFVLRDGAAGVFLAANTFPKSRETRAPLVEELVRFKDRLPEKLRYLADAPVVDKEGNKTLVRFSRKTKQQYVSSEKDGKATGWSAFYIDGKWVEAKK
# Sequence of Phospholipase A2 (P04054 whole entry): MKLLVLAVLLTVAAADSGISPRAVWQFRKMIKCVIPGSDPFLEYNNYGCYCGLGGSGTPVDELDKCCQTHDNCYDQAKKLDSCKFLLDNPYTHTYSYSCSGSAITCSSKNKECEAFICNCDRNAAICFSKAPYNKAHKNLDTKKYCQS
# Sequence of Phosphomannomutase 2 (O15305 whole entry): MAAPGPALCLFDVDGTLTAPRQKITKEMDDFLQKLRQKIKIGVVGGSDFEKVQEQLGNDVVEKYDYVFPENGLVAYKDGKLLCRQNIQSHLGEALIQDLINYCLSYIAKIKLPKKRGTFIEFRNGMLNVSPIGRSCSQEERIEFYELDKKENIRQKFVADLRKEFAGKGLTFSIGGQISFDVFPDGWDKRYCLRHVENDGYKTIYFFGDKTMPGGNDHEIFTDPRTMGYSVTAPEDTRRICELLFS
# Sequence of CAAX prenyl protease 2 (Q9Y256 whole entry): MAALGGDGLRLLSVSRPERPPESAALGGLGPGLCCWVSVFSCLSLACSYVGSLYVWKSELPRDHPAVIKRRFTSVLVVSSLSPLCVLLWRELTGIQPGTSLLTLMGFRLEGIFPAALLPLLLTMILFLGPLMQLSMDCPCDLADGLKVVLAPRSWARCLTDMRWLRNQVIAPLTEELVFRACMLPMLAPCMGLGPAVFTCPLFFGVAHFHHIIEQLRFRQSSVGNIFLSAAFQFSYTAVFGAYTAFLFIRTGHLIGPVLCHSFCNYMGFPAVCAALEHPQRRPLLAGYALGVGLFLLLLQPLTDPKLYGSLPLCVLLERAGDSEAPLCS
# Sequence of DNA dC->dU-editing enzyme APOBEC-3A (P31941 whole entry): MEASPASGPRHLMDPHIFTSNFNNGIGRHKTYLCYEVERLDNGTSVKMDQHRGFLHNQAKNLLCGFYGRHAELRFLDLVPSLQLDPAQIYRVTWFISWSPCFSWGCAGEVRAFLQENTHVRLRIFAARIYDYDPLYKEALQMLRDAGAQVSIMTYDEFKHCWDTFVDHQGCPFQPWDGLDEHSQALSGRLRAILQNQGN
# Sequence of Trypsin (P00761 whole entry): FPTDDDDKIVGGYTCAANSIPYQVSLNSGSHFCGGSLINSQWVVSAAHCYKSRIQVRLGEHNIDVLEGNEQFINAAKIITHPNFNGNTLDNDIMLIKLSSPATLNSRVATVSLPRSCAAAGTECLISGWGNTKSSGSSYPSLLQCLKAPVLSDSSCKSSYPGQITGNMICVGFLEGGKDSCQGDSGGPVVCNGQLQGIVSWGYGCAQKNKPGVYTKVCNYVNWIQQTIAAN
# Sequence of DNA dC->dU-editing enzyme APOBEC-3G (Q9HC16 whole entry): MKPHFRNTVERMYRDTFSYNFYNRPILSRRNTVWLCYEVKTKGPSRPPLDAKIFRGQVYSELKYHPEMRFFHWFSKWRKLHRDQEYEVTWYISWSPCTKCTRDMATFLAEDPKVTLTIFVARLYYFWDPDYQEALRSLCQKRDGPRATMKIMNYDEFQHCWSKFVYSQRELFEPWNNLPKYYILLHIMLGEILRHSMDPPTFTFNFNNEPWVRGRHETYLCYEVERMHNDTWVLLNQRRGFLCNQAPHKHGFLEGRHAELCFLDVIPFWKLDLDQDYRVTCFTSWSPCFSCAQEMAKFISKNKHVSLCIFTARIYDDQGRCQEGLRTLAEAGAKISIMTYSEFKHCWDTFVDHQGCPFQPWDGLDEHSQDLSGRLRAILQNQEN
# Sequence of Cysteine protease ATG4B (Q9Y4P1 whole entry): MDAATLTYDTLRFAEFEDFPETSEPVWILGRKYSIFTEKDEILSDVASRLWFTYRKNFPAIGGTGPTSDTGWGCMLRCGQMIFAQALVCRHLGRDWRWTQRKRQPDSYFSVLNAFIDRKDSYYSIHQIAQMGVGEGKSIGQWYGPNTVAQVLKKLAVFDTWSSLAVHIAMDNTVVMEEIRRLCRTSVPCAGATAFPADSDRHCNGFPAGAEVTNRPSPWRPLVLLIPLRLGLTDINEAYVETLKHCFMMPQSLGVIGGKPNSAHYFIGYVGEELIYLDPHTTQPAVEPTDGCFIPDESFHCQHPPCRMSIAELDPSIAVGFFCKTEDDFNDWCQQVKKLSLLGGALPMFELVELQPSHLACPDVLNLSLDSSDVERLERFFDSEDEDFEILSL
smiles,measurement,setting,value
O=C(Nc1ccc(C(F)(F)F)cc1)N1CCN(c2ccnc3cc(Cl)ccc23)CC1,EC50,[1],3.22 µM (active)
same,EC50,[2],> 60 µM (not active)
same,AC50,[3],9.05 µM (active)
same,AC50,[4],4.73 µM (active)
same,AC50,[5],0.404 µM (active)
same,AC50,[6],7.27 µM (active)
O=C(NCc1cccc(C(F)(F)F)c1)C1CC(c2c(Cl)cccc2Cl)=NO1 (stereo unspecified),IC50,[7],46.4 µM (inactive)
same,IC50,[8],> 80 µM (inactive)
S=c1[nH]nc(C2COc3ccccc3O2)[nH]1 (stereo unspecified),IC50,[9],7.29 µM (active)
same,IC50,[10],3.89 µM (active)
same,IC50,[11],> 100 µM (inactive)
same,IC50,[12],> 100 µM (inactive)
same,IC50,[13],4.34 µM (active)
Cc1cccc(-c2oc3ccccc3c2C#CCCO)c1,CC50,[14],19.5 µM (active)
same,AC50,[15],7.86 µM (active)
same,AC50,[16],3.96 µM (active)
same,AC50,[17],32 µM (active)
same,IC50,[18],24.2 µM (active)
Cc1cc(C(=O)COC(=O)Cc2nnc(O)c3ccccc23)c(C)n1-c1cccc(C(F)(F)F)c1,AC50,[19],11.4 µM (active)
O=C(Nc1cccc2ncccc12)c1ccc([N+](=O)[O-])o1,IC50,[20],69.4 µM (inactive)
same,IC50,[21],21.8 µM (inactive)
same,IC50,[22],23.4 µM (inactive)
Cc1c(Cl)cccc1NC(=S)NNc1ncc(C(F)(F)F)cc1Cl,EC50,[23],> 40 µM (inactive)
same,IC50,[24],11.9 µM (active)
same,IC50,[25],> 66 µM (inactive)
same,IC50,[26],> 66 µM (inactive)
